For the experiment, the system named is patient's serum-derived HCV. Description: HCV RNA in HuS-E/2 cells cultured in a hollow fiber and infected with patient's serum-derived HCV, with drug added (Example 5). The format is cell-based, hepatitis C virus (HCV). The conditions noted are these: NIM811 1 μg/ml; added after 24 hours of infection; HuS-E/2 cells in hollow fiber; collected after 3, 5 and 7 days; PCR. As to the method:
HuS-E/2 cells with a density of 1×10^5 cells/well were packed into a lumen of a hollow fiber of a cellulose triacetate hollow fiber module (Toyobo Co., Ltd.; Code: TMHFK-001) by applying a centrifugal force of 80 G for 90 seconds, and then were shake-cultured with use of a 12-well plate. After 24 hours, the culture fluid was replaced with 0.8 ml of a culture fluid, prepared with use of human hepatocellular serum-free culture fluid (Toyobo Co., Ltd.; Code: TMHHM-001), which contained serum-derived HCV with 2×10^5 genome copies/ml. After 24 hours of infection, the culture fluid was removed, and the HuS-E/2 cells were washed with PBS three times. Then, three types of new culture fluid were separately added, namely a culture fluid containing INF alpha (1000 IU/ml), a culture fluid containing NIM811 (1 μg/ml), and a culture fluid containing neither of them. Each of the culture fluids was replaced with a new one every two days. The HuS-E/2 cells were collected after 3, 5, and 7 days of infection with serum-derived HCV, and their total RNA was collected with use of a Sepasol I (Nacalai Tesque, Inc). The total RNA was assayed for HCV RNA by a PCR method.

With `C/C=C/C[C@@H](C)[C@@H](O)[C@H]1C(=O)N[C@@H](CC)C(=O)N(C)CC(=O)N(C)[C@@H]([C@@H](C)CC)C(=O)N[C@@H](C(C)C)C(=O)N(C)[C@@H](CC(C)C)C(=O)N[C@@H](C)C(=O)N[C@H](C)C(=O)N(C)[C@@H](CC(C)C)C(=O)N(C)[C@@H](CC(C)C)C(=O)N(C)[C@@H](C(C)C)C(=O)N1C` [NIM811], the “proliferation of patient's serum-derived HCV in the cells (HCV RNA)” value is given as “remarkably inhibits”.

For the origin of these results see patent US20100028973A1, “METHOD FOR PRO[…] VIRUS, HOLLOW FIBER FOR CULTURING HEPATITIS VIRUS-INFECTED CELLS, AND USE THEREOF” (KYOTO UNIVERSITY, priority 2006, published 2010).
